This assay relates to Mycobacterium tuberculosis H37Rv growth inhibition, no glycerol. The experiment in a line: Confirmatory growth inhibition assay, Mycobacterium tuberculosis H37Rv, absence of glycerol (AID 449764).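 On all read-outs here: growth read after 7 days of incubation.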 The following applies: for IC90: measured here: IC90 growth inhibition.

Molecules are shown by their SMILES.

IC50 and IC90 data for 51 compounds are collected here from PubChem BioAssay AID449764 (Southern Research Specialized Biocontainment Screening …, 2010).

One may read the IC50 as the concentration at which inhibition is half-maximal. In general, IC90 refers to the concentration needed for an effect of 90%. Read a high IC90 as weaker potency. `Cc1ccc(-c2csc3ncnc(Nc4ccc(N5CCOCC5)cc4)c23)cc1`: the IC50 is 23.9 µM and the IC90 turned out to be 26.2 µM.

Regarding `CCCCCC(=O)NNC(=S)NC(=O)c1ccc([N+](=O)[O-])cc1`, the IC50 is 3.22 µM and the IC90 worked out at 5.86 µM.

Regarding `Cc1cc(C(=O)N[C@H](c2ccccc2)[C@@]2(C)C[C@@H]2[C@@H](C)C(=O)Nc2ccc3ccccc3c2)n(C)n1`, the IC50 is 39.1 µM and the IC90 came to 53.9 µM.

For the compound `C=C[C@]1(C)C[C@@H](OC(=O)CSCCN(CC)CC)[C@]2(C)C(C)CC[C@]3(CCC(=O)[C@H]32)[C@@H](C)[C@@H]1O` (some centres not stated), the IC50 was 5.69 µM and the IC90 was 8.16 µM.

In the case of `CCN1/C(=C/C=C/c2oc3ccc(-c4ccccc4)cc3[n+]2CC)Oc2ccc(-c3ccccc3)cc21`, the IC50 is 5.81 µM and the IC90 came out at 6.37 µM.

In the case of `Cc1ccc(NC(=O)C2C3/C=C\CCCCC32)cc1C` (configuration not stated), the IC50 was 2.97 µM and the IC90 stood at 4.49 µM.

Regarding `CCOC(=O)c1sc2nc3n(c(=O)c2c1C)CCC(C)CC3` (configuration not stated), the IC50 was 23 µM and the IC90 turned out to be 26.4 µM.

On to `O=C(c1cnn2c(C(F)F)cc(-c3ccccc3)nc12)N1CCc2ccccc2C1`, for which the IC50 was 35.4 µM and the IC90 was 48.6 µM.

Consider `CCOC(=O)c1cc(-c2ccccc2)nc2c1c(C)nn2-c1ccccn1`, for which the IC50 was 19.3 µM and the IC90 is 44.3 µM.

As to `COCC(=O)O[C@]1(CCN(C)CCCc2nc3ccccc3[nH]2)CCc2cc(F)ccc2[C@@H]1C(C)C`, the IC50 is 45.4 µM and the IC90 came to 53.2 µM.

Consider `CCCCn1nc(C(=O)Nc2ccccc2N2CCCC2)c2ccccc2c1=O`, for which the IC50 was 81 µM and the IC90 is above 100 µM.

Turning to `CC(=O)Nc1sc2c(c1-c1nc3ccccc3s1)CCN(C(C)C)C2`, the IC50 was 8.64 µM and the IC90 was 11.2 µM.

`COC(=O)CCc1sc(Nc2ccc(Br)cc2)nc1-c1ccc(OC)cc1`: the IC50 was 40.9 µM and the IC90 is above 100 µM.

As for `CSc1ncc(C(=O)Nc2ccc(Br)cn2)c(C)n1`, the IC50 was 1.54 µM and the IC90 came to 2.93 µM.

With `OC(CNCCc1ccc(C(F)(F)F)cc1)COC(c1ccccc1)c1ccccc1` (configuration not stated), the IC50 is 19.7 µM and the IC90 was 23.1 µM.

Take `COc1ccc(C2CC(=O)c3cnc(Nc4cc(C)cc(C)c4)nc3C2)cc1` (configuration not stated): the IC50 was 20.5 µM and the IC90 came to 45.2 µM.

Regarding `CC1CC2=C(CC1/C=N/NC(N)=S)C(C)(C)CCC2` (configuration not stated), the IC50 was 18.3 µM and the IC90 was 26.8 µM.

On to `CC1CCCC/C1=N\NC(=S)NCCc1ccccc1` (configuration not stated), for which the IC50 was 42.5 µM and the IC90 is 47.9 µM.

Turning to `Clc1cc(Cl)cc(Nc2ncn[nH]2)c1`, the IC50 was 64.6 µM and the IC90 was above 100 µM.

Consider `CCOC(=O)CSc1ccc(C(=O)Nc2ccc(OC)cc2)cn1`, for which the IC50 was 0.46 µM and the IC90 was above 100 µM.

In the case of `CCc1ccc2nc(N(CCCN(C)C)C(=O)c3ccc(S(=O)(=O)N4CCCc5ccccc54)cc3)sc2c1`, the IC50 was 35 µM and the IC90 turned out to be 41 µM.

`Cc1nonc1NC(=O)CSc1ccc(-c2ccccc2)nn1`: the IC50 is 41.2 µM and the IC90 is 58.9 µM.

For the compound `Cc1csc(NC(=O)CCCC(=O)O)c1-c1nc2ccccc2s1`, the IC50 was 90.7 µM and the IC90 was above 100 µM.

With `Cc1ccc2ccc3ccc(C)nc3c2n1`, the IC50 was 1.4 µM and the IC90 came out at 2.11 µM.

With `O=C(NNC1CC(=O)N(c2ccc(Br)cc2)C1=O)c1ccccn1` (configuration not stated), the IC50 is 29.5 µM and the IC90 is above 100 µM.

As to `COc1ccc(-n2c(-c3ccc(Cl)cc3)c[n+]3c2CCc2ccccc2-3)cc1`, the IC50 was 19.4 µM and the IC90 is 26.8 µM.

`Cn1c(NC(=S)Nc2ccccc2)nc2ccccc21`: the IC50 is 5.8 µM and the IC90 worked out at 6.33 µM.

For the compound `CCOc1ccc(C2c3[nH]c4ccccc4c3C[C@H]3C(=O)N(C4CCN(Cc5ccccc5)CC4)CC(=O)N23)cc1OC` (some centres not stated), the IC50 was 23.7 µM and the IC90 was above 100 µM.

As to `CC(/C=C/c1ccccc1)=N\NC(N)=S`, the half-maximal inhibitory concentration (IC50) was 4.99 µM and the IC90 amounted to 12.3 µM.

`Cc1ccc(-c2nc3ccsc3c(=O)o2)cc1`: the IC50 was 4.19 µM and the IC90 is above 100 µM.

As for `COc1ccc(NC(=O)NC(C)C2CC3CCC2C3)cc1` (configuration not stated), the IC50 was 25.3 µM and the IC90 stood at 43.1 µM.

Turning to `CO[C@@]12[C@H](COC(N)=O)C3=C(C(=O)C(C)=C(N)C3=O)N1C[C@@H]1N[C@@H]12`, the IC50 was 74.9 µM and the IC90 is above 100 µM.

Turning to `COC(=O)c1cc(Sc2cccc(Cl)c2Cl)ccn1`, the IC50 was 29 µM and the IC90 was 40.5 µM.

`COc1ccc(-c2cc3c(=O)n(CC(=O)NCCCN4CCC(Cc5ccccc5)CC4)ncn3n2)cc1`: the IC50 was 28.1 µM and the 90% effect concentration (IC90) turned out to be 39.7 µM.

With `C/C(=N\NC(=O)COc1ccc(C)cc1Br)c1cc([N+](=O)[O-])cs1`, the IC50 was 24 µM and the IC90 came to 26.4 µM.

Turning to `COc1cc(NC(C)CCCN)c2ncccc2c1` (configuration not stated), the IC50 was 9.02 µM and the IC90 was 14.3 µM.

Consider `COc1cccc(N2CCN(c3ncnc4c3[nH]c3ccccc34)CC2C)c1` (configuration not stated), for which the IC50 is 27.1 µM and the IC90 worked out at 42.5 µM.

For the compound `COC(=O)CCn1c(C)cc(C(=O)COc2ccccc2C(N)=O)c1C`, the IC50 was 10.9 µM and the IC90 was 14.8 µM.

`Cn1nc(-c2ccc(N3CCCCC3)c(NC(=O)c3ccco3)c2)c2ccccc2c1=O`: the IC50 was 8.18 µM and the IC90 was 12.2 µM.

For the compound `O=[N+]([O-])c1cc(-c2ccc(/C=N\n3cnnc3)o2)cc([N+](=O)[O-])c1`, the IC50 is 45.5 µM and the IC90 was 49.9 µM.

Turning to `CC1(C)OC(=O)C(=Cc2ccc[nH]2)C(=O)O1`, the IC50 is below 0.2 µM and the IC90 is above 100 µM.

Consider `CSc1ccccc1OCc1cc(C(=O)N2CCC(Oc3cccnc3)CC2)no1`, for which the IC50 is 28.3 µM and the IC90 is 37.3 µM.

For the compound `CN(CCCCCCCCCCN(C)C(=O)Oc1cccc([N+](C)(C)C)c1)C(=O)Oc1cccc([N+](C)(C)C)c1`, the IC50 is 2.17 µM and the IC90 was 3.44 µM.

For the compound `Cc1cc(/C=C\c2ccc3cc(N(C)C)ccc3[n+]2C)c(C)n1-c1ccccc1`, the IC50 was 3.26 µM and the concentration for an effect of 90% (IC90) turned out to be 4.49 µM.

Consider `O=C(Oc1ccc2ccccc2c1)c1cncc(Br)c1`, for which the IC50 is 55.3 µM and the IC90 is above 100 µM.

Consider `COC(=O)c1ccc(-c2ncc(-c3cccc4ccccc34)o2)cc1`, for which the IC50 is 80.3 µM and the IC90 is above 100 µM.

In the case of `C/C(CC(=O)Nc1ccc(Cl)cc1C(F)(F)F)=N\NC(N)=S`, the IC50 is 15.9 µM and the IC90 amounted to 20.1 µM.

As for `CCn1c(C)nc2cc(C(=O)OC(C(F)(F)C(F)F)C(F)(F)C(F)F)ccc21`, the IC50 is 21.2 µM and the IC90 was 25.8 µM.

As to `Cc1ccc(-c2cc(-c3ccccc3C)[nH]n2)c(O)c1`, the IC50 was 38.4 µM and the IC90 is above 100 µM.

As to `O=C(CCc1ccc(Oc2cc([N+](=O)[O-])cc([N+](=O)[O-])c2)cc1)N1CCCCCC1`, the IC50 was 14.9 µM and the IC90 is 22.9 µM.

For `COc1ccc(-c2nsc3c(N4CCCCC4C)ncnc23)cc1` (configuration not stated), the IC50 was 96.6 µM and the IC90 was above 100 µM.
